Where two headings read alike, the source gives them in different places.
What was measured:
[1] = system: mitochondrial respiratory chain complex IV; assay type: biochemical, rat
[2] = system: Caenorhabditis elegans (Bristol N2); experiment: C. elegans larval development and growth assay
HepG2 cells [3] = conditions: cited from earlier work
[4] = biological target: T1, mitochondrial respiratory chain complex II (Rattus norvegicus, UniProt P21913+Q641Z9+Q6PCT8+Q920L2); experiment: Respiratory chain complex II activity; assay type: biochemical; conditions: tested up to 100μM
T1 construct: Submitochondrial particles were prepared by subjecting the intact rat mitochondria, isolated as described above, to three successive freeze–thaw cycles; from tissue; host or cells: rat liver mitochondria (submitochondrial particles)

HepG2 cells [5] = experiment: Intracellular ATP content (cell viability) assay; assay type: cell-based, human; conditions: Homo sapiens
rat primary hepatocytes [6] = system: rat primary hepatocytes
[7] = system: mitochondrial respiratory chain complex V; assay type: biochemical, rat
[8] = system: HeLa cells expressing YFP-Parkin; experiment: Parkin translocation assay; assay type: cell-based, human
[9] = system: Caenorhabditis elegans (Bristol N2); conditions: Bristol N2 (wild type), Caenorhabditis elegans, in vivo
[10] = system: isolated rat liver mitochondria; experiment: Oxygen consumption, Clark-type oxygen electrode; assay type: biochemical
hNSC = experiment: MMP assay in human neural stem cells (hNSC); assay type: cell-based; conditions: Homo sapiens, Neural stem cell, read-out: hNSC IC50 (MMP)
[11] = system: mitochondrial respiratory chain complex III; assay type: biochemical, rat
HepG2 cells [12] = experiment: cells; conditions: Homo sapiens; for Emax: HepG2, read-out: MMP assays efficacy (%) HepG2
HepG2 cells [13] = experiment: ROS-Glo hydrogen peroxide (ROS) assay; assay type: cell-based, human
rat primary hepatocytes [14] = experiment: MMP assay in rat primary hepatocytes; conditions: for IC50: Rattus norvegicus, Hepatocyte
[15] = system: Nrf2/ARE (ARE-bla HepG2 cells); experiment: ARE β-lactamase reporter gene assay; assay type: cell-based, human; conditions: 16 h incubation, mean±SD of three experiments
[16] = system: mitochondrial respiratory chain complex I; assay type: biochemical, rat
[17] = system: Caenorhabditis elegans strain PE255; experiment: In vivo C. elegans ATP status assay
[18] = system: p53 (p53-bla HCT-116 cells); experiment: p53 β-lactamase reporter gene assay; assay type: cell-based, human; conditions: 16 h incubation; mean±SD of three experiments
[19] = HepG2, 1 h, read-out: HepG2 IC50 Galactose (MMP)
[20] = HepG2, 1 h, read-out: HepG2 IC50 Glucose (MMP)
[21] = 1 h, read-out: Rat hepatocytes IC50 (MMP)
[22] = read-out: MMP assays IC50 (µM) Rat Hepatocytes

T1 sequence (Q920L2 35-656): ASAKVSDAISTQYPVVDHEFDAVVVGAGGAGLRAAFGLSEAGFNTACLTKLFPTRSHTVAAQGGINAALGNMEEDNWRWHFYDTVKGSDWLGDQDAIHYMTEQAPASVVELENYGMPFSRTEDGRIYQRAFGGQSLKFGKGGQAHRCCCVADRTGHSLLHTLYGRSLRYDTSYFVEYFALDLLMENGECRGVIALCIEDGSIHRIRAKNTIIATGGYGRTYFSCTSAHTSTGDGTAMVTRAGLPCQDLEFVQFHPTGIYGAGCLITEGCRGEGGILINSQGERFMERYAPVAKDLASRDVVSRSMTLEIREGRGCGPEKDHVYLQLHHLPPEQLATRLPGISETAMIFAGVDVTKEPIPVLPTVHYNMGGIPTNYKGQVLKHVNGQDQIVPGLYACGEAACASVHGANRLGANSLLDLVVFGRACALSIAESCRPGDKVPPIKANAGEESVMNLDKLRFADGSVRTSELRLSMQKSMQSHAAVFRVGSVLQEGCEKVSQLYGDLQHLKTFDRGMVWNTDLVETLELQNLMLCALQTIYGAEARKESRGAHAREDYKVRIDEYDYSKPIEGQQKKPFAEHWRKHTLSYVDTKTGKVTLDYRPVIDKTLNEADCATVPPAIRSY
T1 sequence (P21913 31-282): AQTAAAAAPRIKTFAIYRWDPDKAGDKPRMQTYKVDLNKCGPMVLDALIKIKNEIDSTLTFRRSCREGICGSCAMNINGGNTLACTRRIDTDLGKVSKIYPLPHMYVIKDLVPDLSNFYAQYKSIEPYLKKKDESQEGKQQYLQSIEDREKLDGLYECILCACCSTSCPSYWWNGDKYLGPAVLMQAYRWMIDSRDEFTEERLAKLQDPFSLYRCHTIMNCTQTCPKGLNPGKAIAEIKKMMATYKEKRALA
T1 sequence (Q641Z9 1-169): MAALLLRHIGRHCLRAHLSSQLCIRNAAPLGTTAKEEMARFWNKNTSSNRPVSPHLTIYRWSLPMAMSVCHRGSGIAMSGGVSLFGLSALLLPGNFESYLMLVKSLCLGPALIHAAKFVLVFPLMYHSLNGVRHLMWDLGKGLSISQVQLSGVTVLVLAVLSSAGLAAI
T1 sequence (Q6PCT8 57-159): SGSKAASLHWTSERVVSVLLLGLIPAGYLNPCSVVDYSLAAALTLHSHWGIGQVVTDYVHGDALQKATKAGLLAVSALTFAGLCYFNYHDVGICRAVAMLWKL

## C=C(c1ccc(C(=O)O)cc1)c1cc2c(cc1C)C(C)(C)CCC2(C)C [Bexarotene, reference compound]
[1]
  Complex IV % inhibition (activity call): Inactive
[2]; Caenorhabditis elegans, read-out: LEC EXT: lowest effect concentration for extinction, a measure of nematode size
  minimal effective concentration: 10 µM
HepG2 cells [3]
  MMP assays efficacy (%) qHTS-HepG2: -124±6%
HepG2 cells [3]; read-out: MMP assays IC50 (µM) qHTS-HepG2
  IC50: 16.5 ± 3.95 µM
[4]
  Complex II % inhibition (activity call): Inactive
HepG2 cells [5]; HepG2, 40 h, read-out: ATP (HepG2, galactose) IC50
  IC50: 63.2 µM
HepG2 cells [5]; HepG2, 40 h, read-out: ATP (HepG2, glucose) IC50
  IC50: 63.2 µM
Rat primary hepatocytes [6]
  MMP assays efficacy (%) Rat Hepatocytes: -112±7%
  Rat hepatocytes (efficacy) (MMP): 39.9±5.09 ( −93.8±8.55 ) %
[7]
  Complex V % inhibition (activity call): Inactive
[8]
  Parkin recruitment: Inactive
[9]
  LEC (lowest effect concentration), larval growth assay: ≤ 10 µM
[10]
  Potential Mechanism: Uncoupler + inhibitor
[10]; 0.8 µM
  I-ADP, % of control (O2 consumption rate): 92 (45.5) % of control
  I-sub, % of control (O2 consumption rate): 108 (17.4) % of control
  II-ADP, % of control (O2 consumption rate): 84 (65.0) % of control
  II-sub, % of control (O2 consumption rate): 93 (28.5) % of control
[10]; 4 µM
  I-ADP, % of control (O2 consumption rate): 86 (42.6) % of control
  II-ADP, % of control (O2 consumption rate): 81 (62.5) % of control
  II-sub, % of control (O2 consumption rate): 97 (29.8) % of control
[10]; 20 µM
  I-ADP, % of control (O2 consumption rate): 61 (29.8) % of control
  I-sub, % of control (O2 consumption rate): 155 (25.0) % of control
  II-ADP, % of control (O2 consumption rate): 39 (30.1) % of control
  II-sub, % of control (O2 consumption rate): 107 (32.7) % of control
[10]; 100 µM
  I-ADP, % of control (O2 consumption rate): 5 (2.8) % of control
  I-sub, % of control (O2 consumption rate): 36 (4.9) % of control
  II-ADP, % of control (O2 consumption rate): 6 (3.8) % of control
  II-sub, % of control (O2 consumption rate): 24 (5.1) % of control
hNSC; 1 h
  IC50: 22.3 µM
[11]
  Complex III % inhibition (activity call): Inactive
HepG2 cells [12]; [19]
  IC50: 50.2 µM
HepG2 cells [12]; [20]
  IC50: 50 µM
HepG2 cells [12]
  Emax: 106%
HepG2 cells [13]
  ROS (HepG2) EC50: Inactive
Rat primary hepatocytes [14]; [21]
  IC50: 39.9 µM
Rat primary hepatocytes [14]; [22]
  IC50: 9.08 ± 1.16 µM
[15]; Homo sapiens, HepG2, read-out: ARE (HepG2) EC50
  EC50: 11.5 ± 0.75 µM
[16]
  Complex I % inhibition (activity call): Inactive

## COc1cc2c(cc1OC)-c1cc3ccc(OC)c(OC)c3c[n+]1CC2 [Palmatine chloride hydrate]
[17]; 0.5 µM
  LUM: mean difference in luminescence (ATP content) relative to plate controls: 1.192
[17]; 1 µM
  LUM: mean difference in luminescence (ATP content) relative to plate controls: -0.05262
[17]; 5 µM
  LUM: mean difference in luminescence (ATP content) relative to plate controls: 0.04332
[17]; 10 µM
  LUM: mean difference in luminescence (ATP content) relative to plate controls: -0.02063
[17]; 25 µM
  LUM: mean difference in luminescence (ATP content) relative to plate controls: -0.0762
[17]; 50 µM
  LUM: mean difference in luminescence (ATP content) relative to plate controls: 0.2026
[17]; 75 µM
  LUM: mean difference in luminescence (ATP content) relative to plate controls: 0.01325
[17]; 100 µM
  LUM: mean difference in luminescence (ATP content) relative to plate controls: 0.2556
[1]
  Complex IV % inhibition (activity call): Inactive
[2]; 0.5 µM
  EXT: mean difference in nematode size relative to plate controls: -0.01207
[2]; 1 µM
  EXT: mean difference in nematode size relative to plate controls: -0.07266
[2]; 5 µM
  EXT: mean difference in nematode size relative to plate controls: -0.05419
[2]; 10 µM
  EXT: mean difference in nematode size relative to plate controls: -0.03134
[2]; 25 µM
  EXT: mean difference in nematode size relative to plate controls: 0.08842
[2]; 50 µM
  EXT: mean difference in nematode size relative to plate controls: 0.1943
HepG2 cells [3]
  MMP assays efficacy (%) qHTS-HepG2: -99±8%
HepG2 cells [3]; read-out: MMP assays IC50 (µM), qHTS-HepG2
  IC50: 22.7 ± 5.23 µM
[4]
  Complex II % inhibition (activity call): Inactive
HepG2 cells [5]; HepG2, 5 mM glucose, 40 h treatment, mean±SD of three experiments, read-out: ATP (HepG2, glucose) IC50
  IC50: 19 ± 9.49 µM
HepG2 cells [5]; HepG2, 10 mM galactose, 40 h treatment, mean±SD of three experiments, read-out: ATP (HepG2, galactose) IC50
  IC50: 27.1 ± 8.93 µM
[7]
  Complex V % inhibition (activity call): Inactive
[8]; HeLa cells stably expressing YFP-Parkin, treated for 2 h
  Parkin recruitment: Inactive
[18]
  p53 (HCT-116) EC50: Inactive
[10]; 0.8 µM, glutamate/malate driven state 3 respiration, isolated rat liver mitochondria
  I-ADP, % of control (O2 consumption rate): 91 (32.3) % of control
[10]; 0.8 µM, glutamate/malate driven state 4 respiration, isolated rat liver mitochondria
  I-sub, % of control (O2 consumption rate): 114 (10.9) % of control
[10]; 0.8 µM, succinate-driven state 3 respiration, isolated rat liver mitochondria
  II-ADP, % of control (O2 consumption rate): 96 (51.6) % of control
[10]; 0.8 µM, succinate-driven state 4 respiration, isolated rat liver mitochondria
  II-sub, % of control (O2 consumption rate): 119 (19.5) % of control
[10]; 4 µM, glutamate/malate driven state 3 respiration, isolated rat liver mitochondria
  I-ADP, % of control (O2 consumption rate): 76 (27.3) % of control
[10]; 4 µM, glutamate/malate driven state 4 respiration, isolated rat liver mitochondria
  I-sub, % of control (O2 consumption rate): 105 (10.1) % of control
[10]; 4 µM, succinate-driven state 3 respiration, isolated rat liver mitochondria
  II-ADP, % of control (O2 consumption rate): 89 (47.6) % of control
[10]; 4 µM, succinate-driven state 4 respiration, isolated rat liver mitochondria
  II-sub, % of control (O2 consumption rate): 103 (16.9) % of control
[10]; 20 µM, glutamate/malate driven state 3 respiration, isolated rat liver mitochondria
  I-ADP, % of control (O2 consumption rate): 70 (25.0) % of control
[10]; 20 µM, glutamate/malate driven state 4 respiration, isolated rat liver mitochondria
  I-sub, % of control (O2 consumption rate): 114 (10.9) % of control
[10]; 20 µM, succinate-driven state 3 respiration, isolated rat liver mitochondria
  II-ADP, % of control (O2 consumption rate): 85 (45.5) % of control
[10]; 20 µM, succinate-driven state 4 respiration, isolated rat liver mitochondria
  II-sub, % of control (O2 consumption rate): 116 (19.1) % of control
[10]; 100 µM, glutamate/malate driven state 3 respiration, isolated rat liver mitochondria
  I-ADP, % of control (O2 consumption rate): 77 (35.3) % of control
[10]; 100 µM, glutamate/malate driven state 4 respiration, isolated rat liver mitochondria
  I-sub, % of control (O2 consumption rate): 172 (26.6) % of control
[10]; 100 µM, succinate-driven state 3 respiration, isolated rat liver mitochondria
  II-ADP, % of control (O2 consumption rate): 56 (40.4) % of control
[10]; 100 µM, succinate-driven state 4 respiration, isolated rat liver mitochondria
  II-sub, % of control (O2 consumption rate): 114 (35.8) % of control
[10]; mitochondrial respiration in isolated rat liver mitochondria, Clark type oxygen electrode, over tested concentrations
  Potential Mechanism: Uncoupler + Inhibitor
hNSC; 1 h treatment, fresh re-sourced stocks, mean±SD of three experiments
  IC50: 34.1 ± 11.2 µM
[11]
  Complex III % inhibition (activity call): Inactive
HepG2 cells [12]; [19]
  IC50: 70.6 ± 4.79 µM
HepG2 cells [12]; [20]
  IC50: 55.7 ± 17.9 µM
HepG2 cells [12]; HepG2, read-out: MMP assays IC50 (µM) HepG2
  IC50: 12.6 µM
HepG2 cells [12]
  Emax: 86%
HepG2 cells [13]; 2 h treatment, mean±SD of three experiments
  ROS (HepG2) EC50: Inactive
Rat primary hepatocytes [14]; % of positive control, mean±SD of three experiments
  Rat hepatocytes (efficacy) (MMP): −101±2.09%
Rat primary hepatocytes [14]; [21]
  IC50: 6.74 ± 2.89 µM
Rat primary hepatocytes [14]; [22]
  IC50: 1.37 ± 0.7 µM
Rat primary hepatocytes [14]; rat hepatocytes, mean ± SD of three experiments
  MMP assays efficacy (%) Rat Hepatocytes: -72±21%
[15]
  ARE (HepG2) EC50: Inactive
[16]; at 100μM
  Complex I % inhibition: 12.3±3.05 at 100μM %

From PMC6112376, “Comprehensive Analyses and Prioritization of Tox21 10K Chemicals Affecting Mitochondrial Function by in-Depth Mechanistic Studies” (Environmental Health Perspectives, 2018)
